A short description of data set [1]: Comparison of renal tracer clearances in human subjects relative to PAH (FIG. 4).
The conditions of data set [2]: background statement; cited from earlier work.
The conditions of data set [3]: cited from earlier work.
For data set [4] the following is noted: normal volunteers; cited from earlier work.
The test system of data set [5] is plasma protein. The settings on record: rats, cited from earlier work.
The conditions of data set [6]: humans, cited from earlier work.
Data set [7] in a line: Safety in healthy volunteers (vital signs, CBC, chemistry panel, urinalysis). The data set is classed as in vivo, human. The settings on record: about 74 MBq, pre- and 24 hr post-injection. From the text: Five healthy volunteers (3 male, 2 females; mean age±SD, 39.4±12.7 yrs; range 20-55 yrs) participated in this study. Inclusion criteria required the absence of any history of kidney and bladder diseases and a normal review of systems. Pregnancy was excluded in females by means of a urine pregnancy test.

The conditions of data set [8]: cited from earlier work. This is another data set of the same source.
The test system of data set [9] is red blood cells. Nature of the data set: Red cell uptake in healthy volunteers. The data set is classed as in vitro ADME, human. As to conditions: normal volunteers, individual values and mean.
In another data set the test system is erythrocytes. Nature of the data set: Erythrocyte uptake, rat blood. It counts as in vitro ADME. As to conditions: rats. The procedure: (§1) Arterial blood samples were placed in capillary tubes and centrifuged to determine the hematocrit. Samples of the whole blood and packed cells (about 0.3 mL each) were pipetted into counting tubes, weighed, and counted. The percent uptake in the erythrocytes was calculated from the whole blood (counts/g) and packed cells (counts/g). Percent erythrocyte uptake=[(counts/g in erythrocytes×hematocrit)/counts/g in whole blood]. No correction was made for plasma trapped in the red blood cells sample. PPB and erythrocyte uptake were calculated in duplicate and the mean values reported.

Data set [10] in a line: Cysteine and histidine challenge at 37 C (HPLC). The settings on record: 0.1 M cysteine and histidine, 4 h, listed as Na2[^99mTc(CO)3(NTA)].
Experimental: (§4) The buffered solution was evaluated by HPLC at 24 h to assess stability. […] (0.1 mL) were mixed with 0.1 M solutions of histidine and cysteine (0.9 mL) and incubated at 37° C.; aliquots were analyzed by HPLC at 1, 2 and 4 h to evaluate decomposition.
Data set [11] has as its system plasma protein. Briefly: Plasma protein binding in healthy volunteers. It counts as in vitro ADME, human. The settings on record: normal volunteers, individual values and mean.
Data set [12] can be described thus: In vitro stability in physiological phosphate buffer pH 7.4 (HPLC). As to conditions: phosphate buffer pH 7.4, 24 h, listed as Na2[^99mTc(CO)3(NTA)].
Experimental: as §4
Data set [13] can be described thus: Renal (plasma) clearance at steady-state infusion in rats. It counts as in vivo. As to conditions: steady-state co-infusion, average of three 10-min periods. The procedure: Two male rats were anesthetized as described above and placed on a heated surgical table. Following tracheostomy, the left jugular vein was cannulated with two pieces of PE-50 tubing (one for infusion of radiopharmaceuticals and one to infuse normal saline (5.8 mL/h) to maintain hydration and additional anesthetic (5 mg/h) as necessary). The right carotid artery was cannulated for blood sampling and the bladder was catheterized by use of PE-50 tubing. The core temperature of each animal was continually monitored throughout the study using a rectal temperature probe. […] (3.7 MBq/mL [100 μCi/mL]) and ^131I-OIH (1.85 MBq/mL [50 μCi/mL]), were co-infused at a flow rate of 1.7 ml/h for 60 mins to establish steady-state blood levels. […] The blood samples were centrifuged for 15 mins and plasma samples were obtained. Plasma clearance (CI) was determined by utilizing the equation: CI (mL/min)=UV/P, where U is the urine radioactivity concentration, V is the urine volume excreted per minute and P is the plasma radioactivity concentration.

The nature of data set [14]: Plasma clearance in healthy volunteers (single injection, two-compartment model). The data set is classed as in vivo, human. As to conditions: normal volunteers (n=5), individual values and mean. An excerpt: Inclusion criteria required the absence of any history of kidney and bladder diseases and a normal review of systems. Pregnancy was excluded in females by means of a urine pregnancy test.

The subject of data set [15] is plasma protein. Nature of the data set: Plasma protein binding by ultrafiltration, rat plasma. The data set is classed as in vitro ADME. The settings on record: rats. The procedure: as §1
Data set [16] is described as follows: Biodistribution in Sprague-Dawley rats, percentage of injected dose (Example 6, Table 1). The settings on record: for Percentage of injected dose in bowel: combined stomach and intestine. The data set is classed as in vivo. The protocol:
Five samples for the 10 mins study, and six samples for the 60 mins study were used; the one sample for each time point was diluted to 100 ml, and three 1-ml portions of the resulting solution were used as standards. Each rat was anesthetized with ketamine-xylazine (2 mg/kg of body weight) injected intramuscularly, with additional supplemental anesthetic as needed. The bladder was catheterized by use of heat-flared PE-50 tubing (Becton, Dickinson and Co.) for urine collection.
A blood sample was obtained, and the heart, lungs, spleen, liver, intestines, stomach, and kidneys were removed. The whole liver was weighed, and random sections were obtained for counting. Blood, urine, whole organs, and tissue samples were placed in tubes, and each sample was weighed. […] The percentage of the dose in each tissue or organ was calculated by dividing the counts in each tissue or organ by the total injected counts, using reference counts from an accurately diluted sample of the original injection. The value given for the bowel represented combined stomach and intestine activities.

Data set [17] is described as follows: Renal extraction fraction in rats (arterial vs renal venous plasma). It counts as in vivo.
Experimental: The extraction fraction (EF) was measured at the conclusion of the clearance measurements by obtaining a left renal venous blood sample (0.5 mL) followed immediately by a carotid artery sample (3 mL). Both blood samples were centrifuged immediately after collection to obtain plasma samples. EF was calculated by measuring the difference between the arterial and venous plasma sample: EF=(arterial concentration−venous concentration)/arterial concentration.
The subject of data set [18] is red blood cells. The settings on record: human blood, equilibrium conditions; cited from earlier work.
Data set [19] can be described thus: Biodistribution in rats with renal pedicle ligation (renal failure model), Group B. It counts as in vivo, Sprague-Dawley rats. The settings on record: 60 min. The protocol:
(§2) Rats in both groups were anesthetized with ketamine-xylazine (2 mg/kg of body weight) injected intramuscularly, with additional supplemental anesthetic as needed. In the first group of ten normal rats (Group A), the bladder was catheterized by use of heat-flared PE-50 tubing. In the second group of six rats (Group B), the abdomen was open by a midline incision and both renal pedicles were ligated to produce a model of renal failure; thus no urine was collected.
(§3) One additional aliquot (0.2 mL) for each time point was diluted to 100 mL, and three 1-mL portions of the resulting solution were used as standards.
The 6 Group B rats were sacrificed 60 mins after injection. Selected organs, blood, and all of the small and large intestines were collected and counted as described above. The percentage injected dose reported for the bowel was based on the combined counts in the small and large intestines.

The conditions of data set [20]: normal volunteers.
Data set [21] is described as follows: Biodistribution in normal rats, Group A (Example 7, Table 3). The data set is classed as in vivo, Sprague-Dawley rats. As to conditions: for Percent injected dose in bowel: duodenum and colon samples; for Percent injected dose in blood: normal rats Group A, n=5. The protocol: as §2, §3
In Group A, 5 animals were sacrificed at 10 min, and 5 animals were sacrificed at 60 mins after injection. A blood sample was obtained, and the kidneys, heart, lungs, spleen, whole stomach and sections of the duodenum and ascending colon were removed and placed in counting vials. The whole liver was weighed, and random sections were obtained for counting. Samples of blood and urine were also placed in counting vials and weighed. […] The percentage of the dose in each tissue or organ was calculated by dividing the counts in each tissue or organ by the total injected counts. The percentage injected dose reported for the bowel was based on the combined counts of the duodenum and colon samples.

Values joined by “and” are separate entries in the source; they are usually repeats but may differ in a detail not shown here. Equal entries are not always repeated. Where two headings read alike, the source gives them in different places.

On to `O=C([O-])CN=C([O-])CN=C([O-])CN=C([O-])C[S-].[O-2].[Tc+4]` [^99mTc-MAG3, technetium-99m mercaptoacetyltriglycine], for which the “Clearance relative to PAH (PAH assigned 100%)” value in [1] is “substantially less than that of PAH”; in data set [1] (listed as 99mTcMAG3) it was “substantially less”. Besides, in [2], the “Extraction fraction (EF)” value is 50-60%. In addition, the Hepatobiliary clearance was 11.7% in data set [3] (fasting rats) and 6.6% in data set [3] (rats with free access to food). The “Injected dose transported into the small intestine via the hepatobiliary system” value in data set [4] is on record as 0.5-1.0%. Further, the Protein binding with plasma protein [5] (before infusion) was 78%; with plasma protein [5] (following PAH infusion), 44%; in the data set with plasma protein [5] (following ammonium chloride infusion), 63%; in the data set with plasma protein [5] (following mannitol infusion), 42%; with plasma protein [5] (following sodium bicarbonate infusion) it was 65%. Besides, in [6], the “Clearance as multiple of the clearance of 99mTc-DTPA” value was 2-2.5 times.
“technetium-99m tricarbonyl-nitrilotriacetic acid [^99mTc(CO)3(NTA)]”: the “Toxicity (blood pressure, heart rate, temperature, CBC, chemistry panel, urine analysis)” value in [7] is “no evidence of any toxicity”. In addition, in [8], the “pKa of the pendant carboxylic acid” value is on record as “approximately 3”. Further, in data set [1], the “Clearance relative to PAH (PAH assigned 100%)” value is given as “about 90%”. Moreover, the “RBC (red cell uptake)” value is 12% in the data set with red blood cells [9]; 6% and 15% and 20% and 16% and 4% in the data set on red blood cells [9] (listed as 99mTc-NTA); 12% in the data set with red blood cells [9] (listed as 99mTc-NTA, mean). In the data set on erythrocytes (listed as Na2[^99mTc(CO)3(NTA)]), the “Erythrocyte (red cell) uptake” value is 7±2% and 7%. For the same molecule, the “Stability to cysteine and histidine challenge” value in data set [10] is on record as “no degradation”. The “PPB (plasma protein binding)” value with plasma protein [11] is 45%; with plasma protein [11] (listed as 99mTc-NTA), 39% and 40% and 50% and 42% and 53%. In [12], the “Stability at physiological pH” value is reported as “stable for 24 h”. In data set [13], this molecule gave a Plasma clearance of 3.08 mL/min/100 g. For the same molecule, the “Plasma clearance, Cl” value in [14] was 480 mL/min; in data set [14] (listed as 99mTc-NTA), 477.1 mL/min and 607.9 mL/min and 388.5 mL/min and 434.2 mL/min and 491.8 mL/min; in data set [14] (listed as 99mTc-NTA, mean), 479.90 mL/min.
`O=C([O-])CN(CCN(CC(=O)[O-])CC(=O)[O-])CCN(CC(=O)[O-])CC(=O)[O-].[99Tc+4]` [^99mTc-DTPA]: the “Extraction fraction (EF)” value in data set [2] is given as 20%.
As to `O=C(O)CNC(=O)c1ccccc1[131I]` [^131I-OIH, ^131I-ortho-iodohippurate], the “Clearance relative to PAH (PAH assigned 100%)” value in data set [1] is “about 90%”. The Plasma protein binding in the data set with plasma protein [15] is on record as 44±10%. Also, the “RBC (red cell uptake)” value with red blood cells [9] is 20% and 15% and 21% and 25% and 24% and 14%. Besides, in data set [16] (10 min), the “Percentage of injected dose in heart” value was 0.2 ± 0.1%, the “Percentage of injected dose in kidney” value is 5.6 ± 0.6%, the “Percentage of injected dose in liver” value was 4.0 ± 0.7% and the “Percentage of injected dose in lung” value was determined as 0.5 ± 0.2%. In addition, in data set [16] (10 min), the “Percentage of injected dose in urine” value came out at 53.2 ± 7.2% and the “Percentage of injected dose in bowel” value stood at 2.5 ± 0.5%. Moreover, the “Percentage of injected dose in blood” value in data set [16] (10 min post-injection, n=5) came out at 5.6 ± 1.0%. Besides, in data set [16] (60 min), the “Percentage of injected dose in heart” value stood at 0.0 ± 0.0%, the “Percentage of injected dose in kidney” value was 0.5 ± 0.0%, the “Percentage of injected dose in liver” value amounted to 0.7 ± 0.2% and the “Percentage of injected dose in lung” value amounted to 0.1 ± 0.1%. Moreover, in data set [16] (60 min), the “Percentage of injected dose in urine” value stood at 91.4 ± 3.7% and the “Percentage of injected dose in bowel” value is 1.7 ± 0.7%. The “Percentage of injected dose in blood” value in [16] (60 min post-injection, n=6) is 0.5 ± 0.0%. Also, in data set [17], the Extraction fraction is 67.9±6.1% and 67.9%. Further, the “Erythrocyte (red cell) uptake” value in the data set on erythrocytes was 35±1% and 35%. Moreover, the “Fraction bound to or inside red blood cells” value with red blood cells [18] is reported as 15-20%. Moreover, the “PPB (plasma protein binding)” value with plasma protein [11] is 77% and 74% and 79%. This molecule had a Plasma clearance in data set [13] of 2.96 mL/min/100 g. Besides, in data set [19] (Group B), the “Percent injected dose in kidney” value is 0.8 ± 0.2% and the “Percent injected dose in liver” value was 9.7 ± 1.7%. Moreover, the “Percent injected dose in bowel” value in data set [19] (Group B, small and large intestines) was 14.6% and 14.6 ± 2.8%. Further, the “Percent injected dose in blood” value in data set [19] (renal pedicle ligation Group B, n=6) was 15.1% and 15.1 ± 0.9%. In addition, the “Urine 30 min (percent dose excreted)” value in data set [20] (30 minutes) is 80% and 74% and 78% and 55% and 64%. The “Urine (percent dose in urine)” value in data set [20] (collection time not given (voids at 30, 90, 180 min)) is 98% and 93% and 96% and 83% and 81%. In data set [21] (Group A, 10 min), the “Percent injected dose in kidney” value was determined as 5.6 ± 0.6%, the “Percent injected dose in liver” value came out at 4.0 ± 0.7%, the “Percent injected dose in urine” value was determined as 53.2 ± 7.2% and the “Percent injected dose in bowel” value stood at 2.2 ± 0.4%. In addition, in [21] (Group A, 60 min), the “Mean total injected activity present in heart, lungs, spleen, blood and liver” value turned out to be 1.1%; the “Percent injected dose in kidney” value came out at 0.5 ± 0.0%; the “Percent injected dose in liver” value stood at 0.6 ± 0.3%; the “Percent injected dose in urine” value was found to be 91.4 ± 3.7%. The “Percent injected dose in bowel” value in data set [21] (Group A, 60 min) is given as 1.0 ± 0.5%. Moreover, the “Percent injected dose in blood” value in data set [21] (10 min) worked out at 5.6 ± 1.0%. Moreover, the “Percent injected dose in blood” value in [21] (60 min) is recorded as 0.5 ± 0.0%. For the same molecule, the “Plasma clearance, Cl” value in [14] is 482 mL/min and 423.4 mL/min and 433.4 mL/min and 481.94 mL/min and 497.49 mL/min and 442 mL/min and 613.4 mL/min.
Take ^99mTc-DD-ethylene dicysteine: the “Clearance as percent of that of PAH” value in [6] (literature) is 60-65%.

Values taken from patent US9061077B2 (Emory University, priority 2008, dated 2015).
